In one experiment the target is T1, URAT1 (Homo sapiens, UniProt Q96S37).
T1 sequence (Q96S37 1-553): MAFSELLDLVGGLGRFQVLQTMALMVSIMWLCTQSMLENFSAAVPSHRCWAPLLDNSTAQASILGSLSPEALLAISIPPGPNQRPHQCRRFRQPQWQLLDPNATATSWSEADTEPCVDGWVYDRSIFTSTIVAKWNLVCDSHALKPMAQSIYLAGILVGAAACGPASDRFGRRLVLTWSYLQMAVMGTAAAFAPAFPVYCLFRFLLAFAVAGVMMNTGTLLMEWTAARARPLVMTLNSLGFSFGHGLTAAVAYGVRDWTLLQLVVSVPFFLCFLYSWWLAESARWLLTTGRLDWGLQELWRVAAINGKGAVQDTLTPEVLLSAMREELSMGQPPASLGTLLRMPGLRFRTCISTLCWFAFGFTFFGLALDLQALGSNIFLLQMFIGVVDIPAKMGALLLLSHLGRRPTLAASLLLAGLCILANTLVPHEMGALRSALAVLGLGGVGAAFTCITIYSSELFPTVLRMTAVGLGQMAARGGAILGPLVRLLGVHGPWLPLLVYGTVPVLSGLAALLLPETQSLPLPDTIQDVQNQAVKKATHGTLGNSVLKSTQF
Particulars: in vitro; cited from earlier work.

Experiment [1] concerns gout patients with hyperuricemia. In words: Febuxostat alone and in combination with drug 1, open-label study in gout patients with hyperuricemia (Examples 23, 24). It is filed as in vivo, human. Particulars: for Mean absolute sUA reduction / Mean sUA % change / Mean sUA level: ± SE. The method, then: Study Objectives • To measure the effect of febuxostat alone and in combination with drug 1 on serum urate concentrations. • To evaluate the safety and tolerability of drug 1 in combination with febuxostat.
The study is open-label in gout patients with hyperuricemia, involving 2 panels of ˜10-12 patients per panel. The panels may be enrolled simultaneously.
Panel 1 receives a once-daily dose of febuxostat 40 mg with ascending doses of drug 1. Panel 2 receives a once-daily dose of febuxostat 80 mg with ascending doses of drug 1.
• Day −14 to Day 28: colchicine prophylaxis; or • Day −7 to Day 28: colchicine prophylaxis (for patients not washing out from ULT) • Days 1-7: febuxostat 40 mg qd • Days 8-14: febuxostat 40 mg qd+drug 1 400 mg qd • Days 15-21: febuxostat 40 mg qd+drug 1 600 mg qd
• Day −14 to Day 28: colchicine prophylaxis; or • Day −7 to Day 28: colchicine prophylaxis (for patients not washing out from ULT) • Days 1-7: febuxostat 80 mg qd • Days 8-14: febuxostat 80 mg qd+drug 1 400 mg qd • Days 15-21: febuxostat 80 mg qd+drug 1 600 mg qd
Gout patients on a urate lowering therapy (ULT), have previously taken a ULT or who have never taken a ULT are eligible to participate. Screening procedures to determine patient eligibility are performed within approximately 21 days of the first dose of study drug (Day 1). Subjects currently on ULT wash-out for approximately 14 days before Day 1, and begin colchicine (Colcrys® 0.6 mg qd, URL Pharma) as prophylaxis for gout flares. During the washout period, subjects who have discontinued ULT may have their sUA re-tested (at least 7 days after washing out) to confirm eligibility. Subjects not on ULT begin colchicine administration at least 7 days prior to Day 1. […] Patients intolerant of colchicine during the screening period are considered screen failures and not enrolled. Prophylactic administration of colchicine continues for 7 days after the last dose of study medication.
Eligible patients report to the study center early morning on Days −1, 7, 14, and 21 (or the afternoon/evening the day before). Serial blood samples are collected on Days −1, 7, 14, and 21. 24-hour urine collection is obtained on Days −1, 7, 14, and 21. Spot urine assessments also obtained on Day −1.
Study medication is administered to each patient and taken orally every morning with approximately 240 mL of water, at approximately the same time of the morning every day, and approximately 30 minutes after finishing a full breakfast (approximately 650 Kcal and 35% fat); the breakfast is standardized on Days −1 to 21.
Inclusion Criteria • Patient is male or post-menopausal or surgically sterile female. • Patient is 18-80 years of age, inclusive. • Patient meets one or more criteria for the diagnosis of gout as per the American Rheumatism Association (ARA) Criteria for the Classification of Acute Arthritis of Primary Gout (Appendix C). • Patient sUA≥8 mg/dL at screening. • Patient willing and able to give informed consent and adhere to visit/protocol schedules • No clinically relevant abnormalities in blood pressure (BP), heart rate (HR), body temperature and respiratory rate as per Investigator's judgment.
Subject urate serum levels are recorded, and any safety concerns assessed (by adverse events, clinical laboratory test results, vital signs, 12-lead ECGs, and physical examinations). […] Urate serum concentrations are evaluated for treatment- and/or time-dependent changes relative to baseline (Day −1), and may be expressed both in standard units (mg/dL) and as changes from baseline (e.g., percent change, absolute change, maximal change, and time or day of maximal change).
Drug 1 was tested according to the clinical trial protocol described in Example 23.
Serum urate levels were measured and absolute and % reduction levels from baseline calculated. Mean levels, mean absolute reductions (mg/dL, all data SE) and % change results are presented in the table below and in FIGS. 10 and 11. […]

[2] abbreviates: FBX 40 mg alone, FBX 40 mg + Drug 1 400 mg.
The mark [3] stands for this setting: FBX 40 mg qd alone days 1-7, FBX 40 mg + Drug 1 400 mg qd days 8-14.
Setting [4] is: FBX 80 mg alone, FBX 80 mg + Drug 1 400 mg.
Setting [5] is: FBX 80 mg qd alone days 1-7, FBX 80 mg + Drug 1 400 mg qd days 8-14.

For `O=C(O)CSc1nnc(Br)n1-c1ccc(C2CC2)c2ccccc12` [Drug 1, Sodium 2-(5-bromo-4-(4-cyclopropylnaphthalen-1-yl)-4H-1,2,4-triazol-3-ylthio)acetate], the “Effect on the URAT1-mediated uptake of uric acid” value on URAT1 is given as “concentration-dependent inhibitory effect”.

Turning to `Cc1nc(-c2ccc(OCC(C)C)c(C#N)c2)sc1C(=O)O` [Febuxostat, 2-(3-Cyano-4-isobutoxyphenyl)-4-methyl-1,3-thiazole-5-carboxylic acid, reference compound], in experiment [1] (setting [2]), the “% Response rate for sUA <3 mg/dL” value is listed as 0%, the “% Response rate for sUA <4 mg/dL” value is 0%, the “% Response rate for sUA <5 mg/dL” value was found to be 17% and the “% Response rate for sUA <6 mg/dL” value was 67%. For the same compound, in experiment [1] (setting [3]), the “Mean absolute sUA reduction” value is -3.2 ± 0.21 mg/dL, the “Mean sUA % change” value is given as −35.7 ± 2.0% and the “Mean sUA level” value amounted to 5.6 ± 0.24 mg/dL. Further, in experiment [1] (setting [4]), the “% Response rate for sUA <3 mg/dL” value was 0%, the “% Response rate for sUA <4 mg/dL” value was 0%, the “% Response rate for sUA <5 mg/dL” value is 22% and the “% Response rate for sUA <6 mg/dL” value was determined as 56%. In addition, in experiment [1] (setting [5]), the “Mean absolute sUA reduction” value was -4.6 ± 0.51 mg/dL, the “Mean sUA % change” value is listed as −44.2 ± 3.5% and the “Mean sUA level” value was 5.7 ± 0.29 mg/dL.

The record behind these values is patent US20180161314A1, “Methods for Treating Hyperuricemia and Related Diseases” (Ardea Biosciences, Inc., priority 2010, published 2018).
